Assay results as given in a melting point compilation (Tetko et al.; mined from patent text by program, amines drawn as free bases though some values may be those of a salt).

SMILES | melting point
CC1(C)OCC2OC2CO1 (stereo not drawn) | 70 to 74 °C
CCCCCCCCC(OC(C)=O)C1=CC(=O)OC1O (stereo not drawn) | 54 to 55 °C
O=C1CCC(CN2C(=O)C3(COc4cc5c(cc43)CCO5)c3ccccc32)N1 (stereo not drawn) | 133 to 136 °C
Cc1cccc(N(c2ccccc2)c2ccc(N(c3ccccc3)c3cccc(C)c3)cc2)c1 | 170 to 171 °C
CCCc1ccc(-c2ccc3c(c2)C=C(C(=O)Nc2ccc(CN(C)C4CCOCC4)cc2)CCS3(=O)=O)cc1 | 247 to 250 °C
O=C(O)c1ccccc1Nc1ccncc1 | 275 to 280 °C
CN(C)C(=O)C1=C(C(=O)Nc2ccc(Cl)cc2)CCCC1 | 125 °C
COC(=O)C1CC2c3cccc4[nH]cc(c34)CC2N(C(C)C)C1 (stereo not drawn) | 193 to 195 °C
O=C(O)c1csc2c1OC(c1ccccc1)(C1CCCCC1)CC2=O (stereo not drawn) | 269 to 275 °C
NC(N)C(=O)c1ccccc1 | 104 to 107 °C
Brc1ccnc2cc3c(cc12)OCO3 | 147 to 149 °C
O=C1Nc2cc(Cl)cc3c2N(CC3)c2ccccc21 | 252 to 255 °C
Cc1[nH]cnc1CNC(=N)NC#N | 216 to 221 °C
N#Cc1cnn(-c2ccc(Cl)c(Cl)c2Cl)c1C=CC(=O)O | 215 to 219 °C
c1ccc(CN2CCc3c(sc4nc5ccccc5n34)C2)cc1 | 124 to 129 °C
CCCCCCCCCCCCCCC(=O)CC(=O)OC | 51 to 53 °C
CO[C@H]1CN(c2c(F)c(N)c3c(=O)c(C(=O)O)cn(C4CC4)c3c2F)C[C@H]1N (relative stereo) | 222 to 223 °C
CC1CC2CC(C)(CN2)C1(C)C(=O)C=CCO (stereo not drawn) | 72 to 75 °C
C=C1[C@H](C(=O)OC)[C@H]1C(=O)OC | 34.1 to 34.9 °C
CCc1[nH]c(=O)[nH]c1-c1cc(C(C)(C)C)c(O)c(C(C)(C)C)c1 | 267 to 270 °C
N#Cc1ccc(NS(=O)(=O)c2ccc([N+](=O)[O-])cc2[N+](=O)[O-])cc1 | 186 to 187 °C

Continued, values first:

melting point | SMILES
66 to 70 °C | CCOC(=O)CSc1nc(Cl)c(C)c(Cl)n1
135 to 136 °C | CC(=O)c1cccc(C(=O)O)c1O
110 to 113 °C | Cc1oc(-c2ccccc2)nc1CCOc1ccc(CO)cc1
110 to 111 °C | CCCCCCCCC1C=CC(CCc2ccc(C(=O)O)o2)=C2N=C3CCCCC3=C21 (stereo not drawn)
163 to 165 °C | OCc1nc2cccnc2n1Cc1ccc(-c2ccccc2)cc1
258 °C | CCNn1cc(C(=O)O)c(=O)c2cc(F)c(Cl)cc21
199 to 203 °C | Cc1c(CC(N)=O)c2cc(OCCCP(=O)(O)O)ccc2n1Cc1ccccc1
259 to 260 °C | CCCOc1ccccc1C1=NC(=O)C2=NC(c3ccccc3)=NC2=N1
180 to 185 °C | COC(=O)Nc1cc(NC(=O)NSC(=S)N(C)C)ccc1C
205 to 206 °C | COc1ccc(-c2nc(-c3ccc(OC)cc3)nc(-c3ccccc3O)n2)cc1
160 to 163 °C | Cc1nn(-c2ccccn2)c(C)c1S(N)(=O)=O
245 to 247 °C | O=CNc1[nH]c(-c2ccc(F)cc2)nc1-c1ccccc1
96 °C | CCOC(=O)CCCOc1cccc(Oc2nc(OC)cc(OC)n2)c1C=O
128 to 130 °C | C=CCc1c(O)ccc2ccc(OCC(=O)OC)cc12
142 to 145 °C | NC(=O)CCN1C(=O)C(=O)c2cc(F)ccc21
201 to 204 °C | CCNc1ccc(C(C)=O)cc1S(N)(=O)=O

melting point | SMILES
108 to 110 °C | CC(C)(C)NCC(O)COc1cccc(C#N)c1 (stereo not drawn)
192 to 194 °C | CCCCc1nc2ccccc2n1-c1ccc(O)cc1
186 to 189 °C | COC(=O)C(C#N)C(=O)Nc1ccc(C(F)(F)F)cc1 (stereo not drawn)
104 to 106 °C | O=C(N[C@H](Cc1cccc(OC(F)(F)C(F)F)c1)[C@@H](O)c1ccc(CN2CCCCC2)cc1)c1cccc2c1C=CCCC2 (racemic)
196 to 197 °C | Cc1ccc(C(=O)NCCO)cc1-n1c(C)cc(OCc2ccccc2CNC(=O)Nc2cc(C(C)(C)C)nn2-c2ccc(Cl)c(O)c2)c(Cl)c1=O
192 to 193 °C | CC(C)Cn1c(=O)n(C)c(=O)c2c(N)ncnc21
106 to 109 °C | CCOC(=O)c1ccc2c(cnn2CCC#N)c1
50 to 51 °C | CCN(CC)c1cccc(NC(=O)COC(C)=O)c1C#N
135 to 137 °C | C#Cc1cc(C(=O)NC(C)CCCc2cccnc2)ccc1-c1ccc(OC)c(OC)c1 (stereo not drawn)
163 to 164 °C | Cc1cc(C(=O)Nc2cccc(C3CN4CCSC4=N3)c2)n(C)n1 (stereo not drawn)
137 to 138 °C | CCCCc1cn(CCc2cccs2)c(=O)n1Cc1ccc(-c2ccccc2-c2nnn[nH]2)nc1
185 to 186 °C | Oc1ccc2c(ccn2Cc2ccncc2)c1
310 °C | O=C(O)c1cnc2cc(C(F)(F)F)ccc2c1Cl
115 to 117 °C | CN(C)CCOc1ccc2cc3ncc(C#N)c(Nc4ccc(Cl)cc4Cl)c3cc2c1
179 to 184 °C | Cc1c(Cc2ccccc2)c(=O)n2c(CN(C)Cc3ccccc3)c(-c3ccc(NC(=O)OC(C)(C)C)cc3)nc2n1Cc1c(F)cccc1F
129 to 130 °C | COc1cnc(C(=O)Nc2c(Cl)cncc2Cl)cc1OC1CCCC1
